From patent US8895585B2, “Nicotinamide derivative or salt thereof” (FUJIFILM Corporation, priority 2010, dated 2014) come the findings set out here.

Assay [1] addresses T1, glutathione S-transferase (GST)-fused full-length human Syk protein (Homo sapiens, UniProt P43405).
T1 construct: (GST)-fused full-length human Syk protein; GST (glutathione S-transferase); purchased Carna Biosciences
The assay can be described thus: Syk enzyme assay. To be noted: Syk enzyme assay, Test Example 1; read-out: IC50 of Syk-inhibitory activity. The assay is classed as biochemical. Summed up: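 GST-tagged full-length human Syk (baculovirus) preincubated with compound 15 min at room temperature (pH 7.0, 10 mM MgCl2), then reacted 40 min with 0.4 μM biotinylated peptide substrate and 27 μM ATP (final). Phosphorylation read by HTRF (615/665 nm) after EDTA stop; IC50 reported.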

In a further assay the test system is THP-1 cells. The assay can be described thus: TNFα generation assay. The assay is classed as cell-based, human. To be noted: Homo sapiens, THP-1, THP-1 cells; Table 22; read-out: IC50 in TNFα generation assay. Summed up:
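Secreted TNFα in supernatant quantified by ELISA or AlphaLISA after 7 h culture on human IgG-coated wells (10 μg/ml coating). Cells were IFN-γ-differentiated THP-1 (10 ng/ml, 2 days), exposed to compound for 30 min at room temperature before plating.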

Consider `COc1ccc(-c2cc(Nc3nc(NC4CCCCC4N)c(F)cc3C(N)=O)ccn2)c(F)c1` (stereo not drawn) [Example 002-140], for which the IC50 in assay [1] is less than 0.01 µM; with THP-1 cells, 0.13 to 0.2 µM.

Turning to `NC(=O)c1cc(F)c(N[C@@H]2CCCC[C@@H]2N)nc1Nc1cnc2ccccc2c1` [Example 37-4, 6-((1R,2S)-2-aminocyclohexylamino)-5-fluoro-2-((quinolin-3-yl)amino)nicotinamide], the IC50 in assay [1] is less than 0.01 µM; in the assay with THP-1 cells, less than 0.065 µM.

As to `NC(=O)c1cc(F)c(NC2CCCCC2N)nc1Nc1cncc(-c2ccc3c(c2)OCO3)c1` (stereo not drawn) [Example 002-175], the IC50 in assay [1] is less than 0.01 µM; in the assay with THP-1 cells, less than 0.065 µM.

As to `CCC[C@@H](Nc1nc(Nc2cnc(C)c(C3CC3)c2)c(C(N)=O)cc1F)[C@H](C)N` [Example 006-250, 6-(((2S,3R)-2-aminohexan-3-yl)amino)-2-((5-cyclopropyl-6-methylpyridin-3-yl)amino)-5-fluoronicotinamide], the IC50 in assay [1] was less than 0.01 µM; with THP-1 cells, 0.13 to 0.2 µM.

With `CN(C)c1cccc2cc(Nc3nc(N[C@@H]4CCCC[C@@H]4N)c(F)cc3C(N)=O)cnc12` [Example 004-032], the results for the IC50 (in assay [1]; with THP-1 cells) were less than 0.01 µM and 0.13 to 0.2 µM, respectively.

Turning to `COc1cc(Nc2nc(N[C@H](CC(C)C)[C@H](C)N)c(F)cc2C(N)=O)ccn1` [Example 006-410, 6-(((2S,3R)-2-amino-5-methylhexan-3-yl)amino)-5-fluoro-2-((2-methoxypyridin-4-yl)amino)nicotinamide], the figures for the IC50 (in assay [1]; with THP-1 cells) were less than 0.01 µM and 0.065 to 0.13 µM, respectively.

On to `CC(C)C(N)CNc1nc(Nc2ccc3ncccc3c2)c(C(N)=O)cc1F` (stereo not drawn) [Example 014-002], for which the IC50 in assay [1] was less than 0.01 µM; with THP-1 cells, less than 0.065 µM.

Take `C[C@H](N)[C@@H](CC1CC1)Nc1nc(Nc2cncc(-n3nccn3)c2)c(C(N)=O)cc1F` [Example 006-352, 2-((5-(2H-1,2,3-triazol-2-yl)pyridin-3-yl)amino)-6-(((2R,3S)-3-amino-1-cyclopropylbutan-2-yl)amino)-5-fluoronicotinamide]: the IC50 in assay [1] was less than 0.01 µM; with THP-1 cells, less than 0.065 µM.

In the case of `CCc1nn(CC(F)F)c2ccc(Nc3nc(N[C@@H]4CCCC[C@@H]4N)c(F)cc3C(N)=O)cc12` [Example 006-455, 6-(((1R,2S)-2-aminocyclohexyl)amino)-2-((1-(2,2-difluoroethyl)-3-ethyl-1H-indazol-5-yl)amino)-5-fluoronicotinamide], the IC50 is less than 0.01 µM in assay [1] and 0.065 to 0.13 µM with THP-1 cells.

As to `COCCn1nc(C)c2cc(Nc3nc(NC4CCCCC4N)c(F)cc3C(N)=O)ccc21` (stereo not drawn) [Example 002-208], the results for the IC50 (in assay [1]; with THP-1 cells) were less than 0.01 µM and 0.065 to 0.13 µM, respectively.

`COc1cc(Nc2nc(N[C@H](CC(C)C)[C@H](C)N)c(F)cc2C(N)=O)cc(OC)n1` [Example 006-409, 6-(((2S,3R)-2-amino-5-methylhexan-3-yl)amino)-2-((2,6-dimethoxypyridin-4-yl)amino)-5-fluoronicotinamide]: the IC50 in assay [1] was less than 0.01 µM; with THP-1 cells, 0.13 to 0.2 µM.

For the compound `CC(C)C[C@H](CN)Nc1nc(Nc2cncc(-n3nccn3)c2)c(C(N)=O)cc1F` [Example 004-195, (R)-2-((5-(2H-1,2,3-triazol-2-yl)pyridin-3-yl)amino)-6-((1-amino-4-methylpentan-2-yl)amino)-5-fluoronicotinamide], the IC50 was less than 0.01 µM in assay [1] and 0.065 to 0.13 µM in the assay on THP-1 cells.

Turning to `CC(C)c1nn(C)c2ccc(Nc3nc(N[C@H](C4CC4)[C@H](C)N)c(F)cc3C(N)=O)cc12` [Example 006-580, 6-(((1R,2S)-2-amino-1-cyclopropylpropyl)amino)-5-fluoro-2-((3-isopropyl-1-methyl-1H-indazol-5-yl)amino)nicotinamide], the IC50 in assay [1] is less than 0.01 µM; in the assay with THP-1 cells, 0.13 to 0.2 µM.

For the compound `CCC[C@@H](Nc1nc(Nc2ccc3nc(C)cnc3c2)c(C(N)=O)cc1F)[C@H](C)N` [Example 006-245, 6-(((2S,3R)-2-aminohexan-3-yl)amino)-5-fluoro-2-((2-methylquinoxalin-6-yl)amino)nicotinamide], the IC50 was less than 0.01 µM in assay [1] and 0.065 to 0.13 µM in the assay on THP-1 cells.

As to `CN(C)c1cccc(-c2cncc(Nc3nc(N[C@@H]4CCCC[C@@H]4N)c(F)cc3C(N)=O)c2)c1` (relative stereo) [Example 004-227, 6-(cis-2-aminocyclohexylamino)-2-((5-(3-(dimethylamino)phenyl)pyridin-3-yl)amino)-5-fluoronicotinamide], the IC50 in assay [1] was less than 0.01 µM; with THP-1 cells, 0.13 to 0.2 µM.

`COCCn1nc(C)c2cc(Nc3nc(N[C@H](CC4CC4)[C@H](C)N)c(F)cc3C(N)=O)ccc21` [Example 006-444, 6-(((2R,3S)-3-amino-1-cyclopropylbutan-2-yl)amino)-5-fluoro-2-((1-(2-methoxyethyl)-3-methyl-1H-indazol-5-yl)amino)nicotinamide]: the IC50 in assay [1] lay within 0.05 to 0.1 µM; in the assay with THP-1 cells it was 0.065 to 0.13 µM.

On to `Cc1nn(CC(F)F)c2ccc(Nc3nc(NC4CCCCC4N)c(F)cc3C(N)=O)cc12` (stereo not drawn) [Example 002-210], for which the IC50 is less than 0.01 µM in assay [1] and 0.065 to 0.13 µM in the assay on THP-1 cells.

As for `Cc1cc(Nc2nc(N[C@H](CCCO)[C@H](C)N)c(F)cc2C(N)=O)cnc1C` [Example 044-000], the values for the IC50 (in assay [1]; with THP-1 cells) were 0.01 to 0.05 µM and 0.065 to 0.13 µM, respectively.

With `NC(=O)c1cc(F)c(N[C@@H]2CCCC[C@@H]2N)nc1Nc1ccc2cnn(C3CC3)c2c1` [Example 006-473, 6-(((1R,2S)-2-aminocyclohexyl)amino)-2-((1-cyclopropyl-1H-indazol-6-yl)amino)-5-fluoronicotinamide], the IC50 in assay [1] was less than 0.01 µM; in the assay with THP-1 cells it was less than 0.065 µM.

`COc1cc(Nc2nc(N[C@H](C3CC3)[C@H](C)N)c(F)cc2C(N)=O)cc(OC)n1` [Example 006-429, 6-(((1R,2S)-2-amino-1-cyclopropylpropyl)amino)-2-((2,6-dimethoxypyridin-4-yl)amino)-5-fluoronicotinamide]: the IC50 in assay [1] was less than 0.01 µM; with THP-1 cells it was 0.065 to 0.13 µM.

For the compound `NC(=O)c1cc(F)c(N[C@@H]2CCCC[C@@H]2N)nc1Nc1cnc(C2CC2)c(F)c1` [Example 006-553, 6-(((1R,2S)-2-aminocyclohexyl)amino)-2-((6-cyclopropyl-5-fluoropyridin-3-yl)amino)-5-fluoronicotinamide], the IC50 in assay [1] was less than 0.01 µM; in the assay on THP-1 cells it was 0.13 to 0.2 µM.

In the case of `CC[C@H](CN)Nc1nc(Nc2ccc3ncccc3c2)c(C(N)=O)cc1F` [Example 39-2, (R)-6-((1-aminobutan-2-yl)amino)-5-fluoro-2-((quinolin-6-yl)amino)nicotinamide], the IC50 was less than 0.01 µM in assay [1] and less than 0.065 µM in the assay with THP-1 cells.

On to `CNc1cc(Nc2nc(NC3CCCCC3N)c(F)cc2C(N)=O)ccn1` (stereo not drawn) [Example 002-058], for which the IC50 was less than 0.01 µM in assay [1] and 0.065 to 0.13 µM in the assay on THP-1 cells.

As to `NC(=O)c1cc(F)c(NC2CCCCC2N)nc1Nc1ccnc(-c2ccoc2)c1` (stereo not drawn) [Example 002-057], the results for the IC50 (in assay [1]; with THP-1 cells) were less than 0.01 µM and 0.065 to 0.13 µM, respectively.

Consider `COCCn1ncc2ccc(Nc3nc(NC4CCCCC4N)c(F)cc3C(N)=O)cc21` (stereo not drawn) [Example 002-048], for which the IC50 in assay [1] is less than 0.01 µM; in the assay on THP-1 cells it was 0.13 to 0.2 µM.

With `CCn1ncc2c(Nc3nc(N[C@H](CC(C)C)[C@H](C)N)c(F)cc3C(N)=O)cccc21` [Example 006-519, 6-(((2S,3R)-2-amino-5-methylhexan-3-yl)amino)-2-((1-ethyl-1H-indazol-4-yl)amino)-5-fluoronicotinamide], the IC50 in assay [1] is less than 0.01 µM; in the assay on THP-1 cells, 0.065 to 0.13 µM.

In the case of `NC(=O)c1cc(F)c(N[C@@H]2CCCC[C@@H]2N)nc1Nc1cncc(-c2cncs2)c1` (relative stereo) [Example 004-074, 6-(cis-2-aminocyclohexylamino)-5-fluoro-2-((5-(thiazol-5-yl)pyridin-3-yl)amino)-nicotinamide], the IC50 was less than 0.01 µM in assay [1] and 0.065 to 0.13 µM in the assay with THP-1 cells.

For `Cc1nc2ccc(Nc3nc(NC4CCCCC4N)c(F)cc3C(N)=O)cc2nc1C` (stereo not drawn) [Example 002-123], the IC50 in assay [1] was less than 0.01 µM; with THP-1 cells it was 0.13 to 0.2 µM.

Regarding `CC[C@@H](Nc1nc(Nc2cncc(F)c2)c(C(N)=O)cc1F)[C@H](C)N` [Example 006-269, 6-(((2S,3R)-2-aminopentan-3-yl)amino)-5-fluoro-2-((5-fluoropyridin-3-yl)amino)nicotinamide], the IC50 in assay [1] lay in the range of 0.01 to 0.05 µM; in the assay on THP-1 cells, 0.065 to 0.13 µM.

Consider `NC(=O)c1cc(F)c(N[C@@H]2CCCC[C@@H]2N)nc1Nc1cnc2c(c1)OCO2` [Example 004-160], for which the values for the IC50 (in assay [1]; in the assay on THP-1 cells) were 0.01 to 0.05 µM and 0.13 to 0.2 µM, respectively.

In the case of `CCCC[C@@H](Nc1nc(Nc2cc(OC)nc(OC)c2)c(C(N)=O)cc1F)[C@H](C)N` [Example 006-405, 6-(((2S,3R)-2-aminoheptan-3-yl)amino)-2-((2,6-dimethoxypyridin-4-yl)amino)-5-fluoronicotinamide], the IC50 was less than 0.01 µM in assay [1] and 0.13 to 0.2 µM with THP-1 cells.

Take `NC(=O)c1cc(F)c(N[C@@H]2CCCC[C@@H]2N)nc1Nc1cncc(-c2ccc(N3CCCC3=O)cc2)c1` (relative stereo) [Example 004-226, 6-(cis-2-aminocyclohexylamino)-5-fluoro-2-((5-(4-(2-oxopyrrolidin-1-yl)phenyl)pyridin-3-yl)amino)nicotinamide]: the values for the IC50 (in assay [1]; with THP-1 cells) were less than 0.01 µM and 0.13 to 0.2 µM, respectively.

With `NC(=O)c1cc(F)c(N[C@@H]2CCCC[C@@H]2N)nc1Nc1cnc(-n2cccn2)c(F)c1` [Example 006-447, 6-(((1R,2S)-2-aminocyclohexyl)amino)-5-fluoro-2-((5-fluoro-6-(1H-pyrazol-1-yl)pyridin-3-yl)amino)nicotinamide], the IC50 in assay [1] was 0.01 to 0.05 µM; with THP-1 cells, 0.13 to 0.2 µM.
